Assay results as given in patent publication US20230322815A1, “NOVEL COMPOUNDS AND THERAPEUTIC USES THEREOF” (University of Huddersfield, priority 2020, published 2023).

How the values were obtained:
[1] = system: panel of human cancer (HT-29, DLD-1, HCT116 p53^+/+ and p53^−/−, PSN1, MiaPaCa2, BxPC3, A549, H460, GBM1) and non-cancer cell lines (ARPE-19, MCF10A, NP1); assay: Chemosensitivity of a panel of human cancer and non-cancer cell lines (MTT, 96 h); type: cell-based; conditions: for IC50: HT-29, DLD-1, HCT116 (p53 wild type and null), BxPC3, A549 and H460 cell lines, 96 h, MTT
Procedure: FIG. 7. Chemosensitivity response of a panel of human cancer and non-cancer cell lines to 96 h continuous exposure to self-assembling test compounds. a, The potency of compounds tested against cancer (HT-29, DLD-1, HCT116 p53^+/+ and […], PSN1, MiaPaCa2, BxPC3, A549, H460 and GBM1) and non-cancer cells (ARPE-19, MCF10A and NP1). Each value represents the mean IC50±standard deviation from a minimum of three independent experiments. b,c, The selectivity index (SI) for [L2Cu3]^6+ (b) and [L2Zn3]^6+ (c) for the indicated cancer cell lines; SI is defined as the mean IC50 against the particular non-cancer cell line model divided by the mean IC50 against the particular cancer cell line. […] As the SI value is calculated using the mean IC50 values, experimental error is not included in these figures. d,e, IC50 values for the clinically approved platinates (cisplatin, oxaliplatin and carboplatin) and [L2Mn3]^6+ and the corresponding SI results.
All cell lines used were maintained at low passage in antibiotic-free media and were obtained from ATCC (LGC Standards, Middlesex, UK) unless otherwise stated (Methods). HT29, DLD-1, HCT116 p53^+/+ and HCT116 p53^−/− are all colorectal adenocarcinoma cell lines derived from different individuals and harbor different combinations of oncogenic lesions (except for the HCT116 isogenic cancer cell clones that are genetically identical except for p53 status). PSN-1, BxPC-3 and MiaPaCa2 are pancreatic carcinoma cell lines and A549 and H460 are lung carcinoma cell lines. HT29, DLD-1, PSN-1, BxPC-3, A549 and H460 cell lines were cultured in RPMI-1640 growth media (Sigma) containing 2 mM L-glutamine, 1 mM sodium pyruvate and 10% fetal bovine serum (FBS). HCT116 (p53^+/+ and p53^−/−) and MiaPaCa2 cell lines were cultured in Dulbecco's Modified Eagle's Medium (Sigma), 2 mM L-glutamine and 10% FBS. The ARPE-19 retinal epithelial non-cancer cell line (Dunn et al., 1996) was cultured in DMEM/F12 media (Gibco), 2 mM L-glutamine, 1 mM sodium pyruvate and 10% FBS. The MCF10A non-cancerous human breast epithelial cell line was cultured in Minimal Essential Media Eagle (Sigma), 2 mM L-glutamine, 1 mM sodium pyruvate, 10% FBS and 1×non-essential amino acids (NEAA). NP1 and GBM1 cells were cultured on plasticware coated with poly-L-ornithine (5 μg/ml) and laminin (2.4 μg/ml) (Polson et al., 2018; Da Silva et al., 2019). […]
[L2M3]^6+ and all the other self-assembling complexes were freshly formed by adding DMSO to individual components mixing together by pipetting. […] Media and MTT were removed and formazan crystals were dissolved in 150 μl of DMSO and the absorbance of the resulting solution determined at 540 nm. […]

chick embryo = assay: Embryonic toxicity, HT29 in ovo study; type: in vivo, chick (White Leghorn); conditions: for % Alive / % Dead / Alive (embryos at E18) / Dead (embryos at E18): HT29 study; for embryo tolerability: dose escalation showing no increased embryonic toxicity
Procedure: 10^6 tumor cells (H460, HT29 or HCT116) were grafted onto the upper chorioallantoic membrane (CAM) of the developing chick embryo on embryonic day 9 (E9). Access to the upper CAM was through a small hole drilled through the eggshell of fertilized White Leghorn eggs (into the air sac) on E9 (15 eggs per experimental group).
100 μl of freshly prepared experimental compound, vehicle control or standard-of-care (SoC) drug at their working concentrations were pipetted onto the tumor graft at E11, E13, E15 and E17. On day E18, the upper CAM (with tumor) was removed, washed by PBS buffer and then directly transferred in PFA (fixation for 48 hrs). After that, tumors were carefully cut away from normal CAM tissue and weighed.
Embryonic viability was checked daily. The number of dead embryos was also counted on E18, to evaluate treatment-induced embryo toxicity.

[2] = dose [1]: L2Zn3 26.6 μM, L2Cu3 23.8 μM
[3] = dose [2]: L2Zn3 53.2 μM, L2Cu3 65.7 μM
[4] = dose [3]: L2Zn3 106.4 μM, L2Cu3 131.46 μM

| SMILES | IC50 [1] | % Alive (chick embryo; [2]) [%] | % Dead (chick embryo; [2]) [%] | Alive (embryos at E18) (chick embryo; [2]) | Dead (embryos at E18) (chick embryo; [2]) | % Alive (chick embryo; [3]) [%] | % Dead (chick embryo; [3]) [%] | Alive (embryos at E18) (chick embryo; [3]) | Dead (embryos at E18) (chick embryo; [3]) | % Alive (chick embryo; [4]) [%] | % Dead (chick embryo; [4]) [%] | Alive (embryos at E18) (chick embryo; [4]) | Dead (embryos at E18) (chick embryo; [4]) | embryo tolerability (chick embryo) | selectivity indices ([1]; many of the cancer cell lines) |
| --- | --- | --- | --- | --- | --- | --- | --- | --- | --- | --- | --- | --- | --- | --- | --- |
| [Zn+2].[Zn+2].[Zn+2].c1ccc(-c2csc(NCCN(CCNc3nc(-c4ccccn4)cs3)CCNc3nc(-c4ccccn4)cs3)n2)nc1.c1ccc(-c2csc(NCCN(CCNc3nc(-c4ccccn4)cs3)CCNc3nc(-c4ccccn4)cs3)n2)nc1 [[L2Zn3]^6+] | mostly sub-μM | 85.71 | 14.29 | 12 | 2 | 92.86 | 7.14 | 13 | 1 | 92.86 | 7.14 | 13 | 1 | well tolerated | – |
| [Cu+2].[Cu+2].[Cu+2].c1ccc(-c2csc(NCCN(CCNc3nc(-c4ccccn4)cs3)CCNc3nc(-c4ccccn4)cs3)n2)nc1.c1ccc(-c2csc(NCCN(CCNc3nc(-c4ccccn4)cs3)CCNc3nc(-c4ccccn4)cs3)n2)nc1 [[L2Cu3]^6+] | mostly sub-μM | 71.43 | 28.57 | 10 | 4 | 85.71 | 14.29 | 12 | 2 | 92.31 | 7.69 | 12 | 1 | well tolerated | > 100 |
